Measured values: patent US9957236B2, “Selective inhibitors interfering with fibroblast growth factor receptor and FRS2 interaction for the prevention and treatment of cancer and other diseases” (LIMITED LIABILITY COMPANY “RUSSIAN PHARMACEUTICAL …, priority 2014, dated 2018)

Legend:
[1] = test system: angiogenesis stimulated by bFGF; assay: Matrigel implant angiogenesis stimulated by bFGF; assay type: in vivo, mice
Description: Eighteen hybrid mice of the 1 generation F1 (C57B1/6×DBA/2), males with a weight of 22-30 g are used in the research. The mice (nomenclature number M02.13.00011) were received from a branch of nursery “Stolbovaya”. The method described earlier was used in the experiment [Passaniti A., 1992]. The control and experiment groups had at least 3 mice. Aliquots (1,000 mcl) of Matrigel (BD Biosciences) containing heparin 60 conventional units/ml, VEGF (200 ng/ml, BD Biosciences) or bFGF (100 ng/ml, BD Biosciences) were prepared on ice. Matrigel containing heparin 60 conventional units/ml was used as negative control. Matrigel was injected in the mice subcutaneously into the side part of the back. After injection, Matrigel quickly forms single, hard gel-like implant. A weight of the inhibitor was dissolved in DMSO to concentration of 10^−2M. Aliquots were frozen down to −20° C. and unfrozen immediately before injection. Refreezing of the solution was not allowed. The tested and standard objects were administered intraperitoneally on the 0, 3 and 6 day of Matrigel impintation: Bevacizumab in a dose of 10 mg/kg and RPT835-15 mg/kg. Seven days after administration of Matrigel, the mice were put into sleep with diethyl ether to remove the implant. The implants were fixed for 24-36 hours in 10% neutral formalin and enclosed in paraffin for further histological research.

[2] = test system: Mel Kor metastatic melanoma cells; assay: Crystal Violet proliferation assay, Mel Kor; assay type: cell-based; settings: hardly expressed FGFR2, bFGF 100 ng/ml, 7 days
Source text: This research used additional cell lines: SKOV3 (ovarian cancer, ATCC # HTB-77), HS578T (breast cancer, ATCC # HTB-126), T47D (breast cancer, ATCC #HTB-1336), modified line of non-small cells lung cancer A549, line of metastatic melanoma of skin Mel Kor (RF Patent No. 2287578), and additional study of antiangiogenic activity—cell line SVEC-4-10 (endothelial cells, ATCC #CRL-2181).
The cells were cultivated in environment RPMI-1640 (PANECO) (SKOV3, HS578T, T47D, Mel-Kor) or DMEM (PANECO) (SVEC-4-10) containing 10% of embryonal serum cattle (FCS, HyClone), 2 mM glutamine (PANECO), antibiotics (100 IU/mL penicillin and […] streptomycin (all PANECO)) at 37° C. and 5% CO2. Cells at 70-80% monolayer were used for the experiments.
The cells were planted in low density (30 t of cells/ml) in triplets on a 96-cavity plate in an environment containing 0.1% of FCS serum. […] Growth of cells was determined by the modified “Crystal Violet mitogenic method” for 7 days after the experiment start. […] The dye was dissolved in ethanol and measured on a spectrophotometer at 540-560 nm. The curve of cell proliferative activity inhibition was built by the dependence of the percent of the cell quantity (Y axis) on concentration of inhibitor RPT835 in the cavity of the plate (X axis). […]

[3] = Toxicity assessment in the in vivo studies of Example 13; settings: nude mice, 30 mg/kg daily through a stomach tube
Description: Toxicity of inhibitor RPT835 was assessed in in vivo studies described in Example 13. According to the standard procedure, all undesirable events were assessed, as well as loss of weight by animals, when the inhibitor is used compared to the control group.

[4] = reaction of immune complexes, general anaphylaxis, degranulation of mast cells, conjuctival test
[5] = Matrigel + bFGF, 15 mg/kg intraperitoneally day 0, 3, 6, p<0.001

## Cc1cc([N+](=O)[O-])c(NS(=O)(=O)c2cccc(C(=O)O)c2)cc1-c1cccnc1 [RPT835, 3-(N-(4-methyl-2-nitro-5-(pyridin-3-yl)phenyl)sulfamoyl)benzoic acid]
[1]; [5]
  decrease of number of functional micro-vessels compared to the control group: more than 2 fold
  decrease of number of migrated cells compared to the control group: more than 2 fold
[1]; Matrigel + bFGF, 15 mg/kg intraperitoneally day 0, 3, 6, p=0.016
  decrease of number of tubular structures compared to the control group: more than 2 fold
[1]; Matrigel implants in mice, intraperitoneally day 0, 3, 6, RPT835 15 mg/kg, Bevacizumab 10 mg/kg
  angiogenesis stimulated by bFGF: effectively inhibited
[2]
  inhibition of proliferative activity: did not block
[3]
  weight loss and undesirable side effects of the therapy: Neither weight loss, nor any undesirable side effects
[4]
  allergic properties: does not show any allergic properties
